Columns and labels:
ADSS from wheat germ = biological target: T1, ADSS from wheat germ (Triticum aestivum, UniProt O24396); assay: ADSS enzyme assay, wheat germ ADSS; type: biochemical; details: compound at 100 μM; wheat germ ADSS (not shown)
T1 construct: from tissue
Experimental: ADSS is obtained from 4-5 day old, etiolated seedlings of Zea mays. Seedlings are homogenized in a Waring blender with an equal volume (grams of tissue=mls of buffer) of extraction buffer containing 50 mM EPPS, pH 7.5, 5 mM MgCl2, 0.1 mM EDTA, 5 mM sodium bisulfite, 5 mM DTT, 0.1 mM phenylmethanesulfonyl fluoride and 10% glycerol. The extract is expressed through Miracloth (Calbiochem, La Jolla, Calif.) sandwiched between layers of cheesecloth. To precipitate phenolics and nucleic acids, 0.2 to 0.4% w/v protamine sulfate is added to the extract. The extract is stirred for 30 minutes, and then centrifuged at 45,000×G for 60 minutes. The resulting supernatant is fractionated with ammonium sulfate. Proteins are retained which precipitate at concentrations of ammonium sulfate greater than 45% saturation, but less than 55% saturation. Similar methods are used to isolate ADSS from wheat germ, E. coli and rat liver. ADSS activity is further purified by subjecting the preparation to DEAE cellulose chromatography. The column is equilibrated with chromatography buffer consisting of 50 mM EPPS, pH 7.5, 10% glycerol, 0.1 mM EDTA, 5 mM MgCl2 and 1 mM DTT. After loading the enzyme preparation, the column is washed with two bed volumes of the chromatography buffer, then eluted with a linear, 10-bed-volume gradient of 0 to 0.4M KCl dissolved in the same buffer. The peak of ADSS activity elutes at a KCl concentration of about 150 mM. […]
(§1) ADSS is assayed by anion exchange HPLC and by a continuous spectrophotometric assay. […] The column eluate is monitored at 270 nm using a Perkin-Elmer LC 480 diode array detector. Integrated peaks are quantified from standard curves. Identity of the products of the ADSS reaction, GDP and adenylosuccinate, are determined by comparing their retention times and spectra with those of authentic standards, purchased from Sigma Chemical Co.
(§2) For the spectrophotometric assay, reaction mixtures are the same as above, except that the volume is doubled. […] This method of quantification was validated using the HPLC method.

[1] = biological target: T2, adenylosuccinate synthetase (ADSS) isolated from maize (Zea mays, UniProt O24578); details: known from the literature; cited from earlier work
T2 construct: ADSS is obtained from 4-5 day old, etiolated seedlings of Zea mays; from tissue; host or cells: 4-5 day old etiolated maize seedlings

[2] = tested on: adenylosuccinate lyase (ASL); assay: Assay of adenylosuccinate lyase (ASL); type: biochemical, Zea mays; details: 1 mM concentration (data not shown)
Experimental: ASL is obtained from three day old, etiolated seedlings of Zea mays (maize). Seedlings are homogenized in a Waring blender with an equal volume (grams of tissue=mls of buffer) of 20 mM potassium phosphate buffer (KP buffer) containing 1 mM DTT. The slurry is then filtered through a cheese cloth and the filtrate subjected to 100,000×g centrifugation for 60 minutes. The clear supernatant is used for assaying ASL activity.
A typical reaction mixture in 1 mL contains 100-300 μL of ASL and 0.15 mM adenylosuccinate (30 μL of a 5 mM solution in KP buffer), the rest being KP buffer. Disappearance of absorbance at 280 nm is followed as a function of time to determine the rate of ASL activity. Inhibitors when needed are included to a final concentration of 1 mM in the assay mixture to observe the effect on the ASL activity. Compounds hydantocidin, N-acetylhydantocidin, NAP-H and hadacidin had no effect on the rate of ASL activity at 1 mM concentration (data not shown).

Arabidopsis seeds = assay: Arabidopsis reversal assay with antidote compounds; type: in vivo; details: for Growth, % of Control: probe compound at 1.5× lethal concentration; for growth without the antidote (in words): probe compound alone, no antidote
Experimental: The solutions are filter sterilized prior to addition. FIG. 4 represents a typical set up in a reversion assay for discovering inhibitors of AMP biosynthesis.
The left side (columns 1-3) of the 24-well microtiter plate is designed for controls, and the right side (columns 4-6) are designated for one probe compound. […] Rows B,C and D are supplemented with three doses of an antidote for the control and probe compound. […] The three doses are 50,100 and 150 μl respectively.
Forty ml of Arabidopsis growth media as described in Example 1 is sterilized and allowed to cool to about 45° C. A probe compound (at 1.5× lethal concentration) is added to columns 4 through 6 (right half of the plate). Media is distributed at 1.0 ml per well to all wells. Sterile seeds are added to each well as described above. As in Example 1, the plate is incubated and growth is scored.

ADSS from rat liver = biological target: T3, ADSS from rat liver (Rattus norvegicus, UniProt D4AEP0); assay: ADSS enzyme assay, rat liver ADSS; type: biochemical; details: compound at 100 μM; rat liver ADSS (FIG. 6)
T3 construct: from tissue; host or cells: rat liver
Experimental: (§3) ADSS is obtained from 4-5 day old, etiolated seedlings of Zea mays. Seedlings are homogenized in a Waring blender with an equal volume (grams of tissue=mls of buffer) of extraction buffer containing 50 mM EPPS, pH 7.5, 5 mM MgCl2, 0.1 mM EDTA, 5 mM sodium bisulfite, 5 mM DTT, 0.1 mM phenylmethanesulfonyl fluoride and 10% glycerol. The extract is expressed through Miracloth (Calbiochem, La Jolla, Calif.) sandwiched between layers of cheesecloth. To precipitate phenolics and nucleic acids, 0.2 to 0.4% w/v protamine sulfate is added to the extract. The extract is stirred for 30 minutes, and then centrifuged at 45,000×G for 60 minutes. The resulting supernatant is fractionated with ammonium sulfate. Proteins are retained which precipitate at concentrations of ammonium sulfate greater than 45% saturation, but less than 55% saturation. Similar methods are used to isolate ADSS from wheat germ, E. coli and rat liver. ADSS activity is further purified by subjecting the preparation to DEAE cellulose chromatography. The column is equilibrated with chromatography buffer consisting of 50 mM EPPS, pH 7.5, 10% glycerol, 0.1 mM EDTA, 5 mM MgCl2 and 1 mM DTT. After loading the enzyme preparation, the column is washed with two bed volumes of the chromatography buffer, then eluted with a linear, 10-bed-volume gradient of 0 to 0.4M KCl dissolved in the same buffer. The peak of ADSS activity elutes at a KCl concentration of about 150 mM. Fractions containing activity are pooled and the proteins concentrated by ultrafiltration. At this stage, the enzyme is suitable for high capacity screening tests that are designed to discover inhibitory compounds. Alternatively, hydrophobic interaction chromatography can be used instead of DEAE-cellulose. This material is optionally further purified by passage through a column of Sephadex G-75 equilibrated with the chromatography buffer described above. The peak of ADSS activity elutes at a retention volume corresponding to a molecular weight of approximately 50,000 Da.
as §1, with “assay. For the former, enzyme is diluted appropriately with 50 mM EPPS, pH 8.3, 10% ethylene glycol, 10 mM potassium phosphate and 1 mM MgCl2 to a volume of 92 μL.” for “assay.”
as §2

[3] = biological target: T2, adenylosuccinate synthetase (ADSS) isolated from maize; assay: ADSS enzyme assay (HPLC and spectrophotometric), maize ADSS; type: biochemical
Experimental: as §3
ADSS is assayed by anion exchange HPLC and by a continuous spectrophotometric assay. For the former, enzyme is diluted appropriately with 50 mM EPPS, pH 8.3, 10% ethylene glycol, 10 mM potassium phosphate and 1 mM MgCl2 to a volume of 92 μL. […] Reactions are stopped by adding 1 μL of 4N HCl. 95 μL of the reaction mixture is injected to a Hamilton PRP-X100 column equilibrated with 3% acetonitrile. Reactants and products are eluted with a convex gradient (Curve=-2) to 6% 1M potassium phosphate, pH 7, and 12% 2M KCl delivered during a span of 30 min by a Perkin-Elmer 410 BIO pump. The column eluate is monitored at 270 nm using a Perkin-Elmer LC 480 diode array detector. Integrated peaks are quantified from standard curves. Identity of the products of the ADSS reaction, GDP and adenylosuccinate, are determined by comparing their retention times and spectra with those of authentic standards, purchased from Sigma Chemical Co.
For the spectrophotometric assay, reaction mixtures are the same as above, except that the volume is doubled. […] The optical density increases as AS is formed. […] This method of quantification was validated using the HPLC method.

ADSS from E. coli = biological target: T4, ADSS from E. coli (Escherichia coli, UniProt P0A7D4); assay: ADSS enzyme assay, E. coli ADSS; type: biochemical; details: compound at 100 μM; E. coli ADSS (FIG. 6)
T4 construct: endogenous in cells; host or cells: E. coli
Experimental: as §3
as §1, with “assay. For the former, enzyme is diluted appropriately with 50 mM EPPS, pH 8.3, 10% ethylene glycol, 10 mM potassium phosphate and 1 mM MgCl2 to a volume of 92 μL.” for “assay.”
as §2

T2 sequence (O24578 45-484): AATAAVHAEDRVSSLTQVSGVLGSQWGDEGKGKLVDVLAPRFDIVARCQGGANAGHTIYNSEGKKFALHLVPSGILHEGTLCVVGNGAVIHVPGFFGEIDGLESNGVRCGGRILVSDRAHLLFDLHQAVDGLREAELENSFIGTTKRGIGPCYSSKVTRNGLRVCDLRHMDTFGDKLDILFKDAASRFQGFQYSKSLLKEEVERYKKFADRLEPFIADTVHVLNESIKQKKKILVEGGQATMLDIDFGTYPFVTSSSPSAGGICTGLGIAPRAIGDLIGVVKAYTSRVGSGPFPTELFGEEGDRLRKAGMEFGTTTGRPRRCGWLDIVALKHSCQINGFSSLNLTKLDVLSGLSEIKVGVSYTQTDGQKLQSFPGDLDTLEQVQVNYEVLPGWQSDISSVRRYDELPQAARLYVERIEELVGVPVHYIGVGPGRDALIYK
T1 sequence (O24396 whole entry): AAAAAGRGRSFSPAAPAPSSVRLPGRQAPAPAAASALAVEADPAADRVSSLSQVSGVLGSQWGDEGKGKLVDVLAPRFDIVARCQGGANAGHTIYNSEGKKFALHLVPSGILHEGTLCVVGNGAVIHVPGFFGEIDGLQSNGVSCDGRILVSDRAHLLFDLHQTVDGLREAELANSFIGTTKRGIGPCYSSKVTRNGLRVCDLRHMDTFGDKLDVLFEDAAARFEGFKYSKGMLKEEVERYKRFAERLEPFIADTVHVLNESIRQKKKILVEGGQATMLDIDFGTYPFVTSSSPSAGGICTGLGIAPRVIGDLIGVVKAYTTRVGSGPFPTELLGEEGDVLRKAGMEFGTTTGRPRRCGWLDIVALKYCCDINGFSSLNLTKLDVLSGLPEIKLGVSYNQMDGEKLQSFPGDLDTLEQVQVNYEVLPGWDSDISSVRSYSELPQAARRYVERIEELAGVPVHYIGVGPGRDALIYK
T4 sequence (P0A7D4 2-432): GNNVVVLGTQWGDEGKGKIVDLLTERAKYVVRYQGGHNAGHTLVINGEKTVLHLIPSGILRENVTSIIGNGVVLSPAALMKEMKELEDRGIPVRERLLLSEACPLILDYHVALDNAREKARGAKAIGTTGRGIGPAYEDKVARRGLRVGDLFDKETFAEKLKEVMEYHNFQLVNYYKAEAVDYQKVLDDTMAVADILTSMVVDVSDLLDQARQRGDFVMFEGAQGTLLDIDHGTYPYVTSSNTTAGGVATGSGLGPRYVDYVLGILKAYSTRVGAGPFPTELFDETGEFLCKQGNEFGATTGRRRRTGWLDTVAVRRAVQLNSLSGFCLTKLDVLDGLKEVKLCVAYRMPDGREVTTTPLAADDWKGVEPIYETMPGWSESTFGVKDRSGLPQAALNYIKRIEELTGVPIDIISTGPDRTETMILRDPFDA
T3 sequence (D4AEP0 1-456): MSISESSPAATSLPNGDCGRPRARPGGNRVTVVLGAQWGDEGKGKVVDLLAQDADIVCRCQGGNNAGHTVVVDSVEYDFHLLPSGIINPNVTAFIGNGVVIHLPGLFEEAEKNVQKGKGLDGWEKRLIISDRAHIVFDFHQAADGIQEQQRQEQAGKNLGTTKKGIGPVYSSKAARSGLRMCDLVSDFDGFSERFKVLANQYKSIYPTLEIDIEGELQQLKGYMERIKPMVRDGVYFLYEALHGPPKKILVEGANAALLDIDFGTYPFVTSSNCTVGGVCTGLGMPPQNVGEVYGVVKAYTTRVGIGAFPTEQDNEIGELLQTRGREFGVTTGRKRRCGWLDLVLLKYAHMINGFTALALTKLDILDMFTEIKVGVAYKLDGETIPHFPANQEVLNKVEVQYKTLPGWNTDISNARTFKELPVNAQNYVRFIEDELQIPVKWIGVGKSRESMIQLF

SMILES | Growth, % of Control (Arabidopsis seeds; No antidote, 0 mM) | Growth, % of Control (Arabidopsis seeds; antidote AMP 0.5-5.0 mM) | Growth, % of Control (Arabidopsis seeds; antidote Adenine 0.5-5.0 mM) | Growth, % of Control (Arabidopsis seeds; antidote Adenosine 0.5-5.0 mM) | Growth, % of Control (Arabidopsis seeds; antidote Guanine 0.5-5.0 mM) | Growth, % of Control (Arabidopsis seeds; antidote Guanosine 0.5-5.0 mM) | Growth, % of Control (Arabidopsis seeds; antidote IMP 0.5-5.0 mM) | growth without the antidote (in words) (Arabidopsis seeds) | also measured
O=CN(O)CC(=O)O [hadacidin] | 0% | 100% | 55% | 80-100% | 0% | 0% | 5% | Growth is not observed | product formation by ADSS (ADSS from wheat germ): Product is not formed; mode of ADSS inhibition [1]: competitively with aspartate; effect on the rate of ASL activity [2]: no effect; Growth, % of Control (Arabidopsis seeds; antidote ADP 0.5-5.0 mM): 100%; Growth, % of Control (Arabidopsis seeds; antidote ATP 0.5-5.0 mM): 40%; Growth, % of Control (Arabidopsis seeds; antidote Adenosine + Guanosine 0.5-5.0 mM): 80%; Growth, % of Control (Arabidopsis seeds; antidote Cytidine + Uridine 0.5-5.0 mM): 0%; Growth, % of Control (Arabidopsis seeds; antidote Hypoxanthine 0.5-5.0 mM): 0%; product formation by ADSS (ADSS from rat liver): Product is not formed; IC50 ([3]; "under these conditions", ADSS source not given): 3 µM; product formation by ADSS ([3]; compound at 100 μM, maize ADSS (not shown)): Product is not formed; time course of ADSS inhibition ([3]; spectrophotometric assay (FIG. 7, FIG. 8)): not time dependent; product formation by ADSS (ADSS from E. coli): Product is not formed
COc1c(C)c2c(c(O)c1C/C=C(\C)CCC(=O)O)C(=O)OC2 [MPA, Mycophenolic Acid] | 0% | 5% | 0% | 5% | 40% | 80% | 5% | Growth is not observed | Growth, % of Control (Arabidopsis seeds; antidote GMP 0.5-5.0 mM): 90%
NC(=O)c1ncn([C@@H]2O[C@H](CO)[C@@H](O)[C@H]2O)n1 [TCR, 1,2,4-triazole-3-carboxamide-1-ribose] | – | – | – | – | – | – | – | Growth is not observed | –

— patent US5780254A, “Method for detection of herbicides” (Sandoz Ltd, priority 1996, dated 1998)
